Experimental data as given in patent US20240174696A1, “2,8-DIAZASPIRO[4.5]DECANE COMPOUNDS” (Genentech, Inc., priority 2021, published 2024).
Where a name gives a salt, the structure may show the parent alone.

What was measured:
[1] = biological target: Human LATS2 catalytic domain (Homo sapiens (Human), UniProt Q9NRM7); test: LATS2 High ATP HTRF Assay; format: biochemical; conditions: no asterisk: LATS2 High ATP HTRF Assay, 5000 μM ATP, 0.05 nM LATS2
How it was run: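 Phosphorylation of 0.5 μM STK S1 peptide at high ATP (5000 μM), 2 h at room temperature, by 0.05 nM LATS2 kinase domain/Mob1b complex after 10 min compound pre-incubation. Ki derived from HTRF-based IC50 (4-parameter logistic) by Cheng-Prusoff, ATP Km 105 μM.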

[2] = system: pYAP(Ser127) in SW1990 cells; test: pYAP(Ser127) HTRF Cellular Assay; format: cell-based; conditions: Homo sapiens, 4 hours
Method: The SW1990 cells were seeded at 8000 cells/well by adding 30 μL/well of cells in RPMI1640, 10% FBS, 2 mM glutamine culture media to a 384-well plate (Corning 3570). The cells were incubated overnight at 37° C. Next day, compounds were directly added to the cells using the Echo Liquid Handler (Labcyte), incubate at 37° C. for 4 hours.
The HTRF assay was performed using the Cisbio phospho-YAP Ser127 HTRF kit (64YAPPEG). The media was aspirated from the cells. 20 μL of 1X lysis/blocking buffer was added to the cells, gently shake for 30 minutes at room temperature. 1 μL of the premixed antibody solution (1:40 dilution of each phospho-YAP Eu Cryptate antibody and phospho-YAP d2 antibody) was added to the cells. The plate was sealed and incubated overnight at room temperature. The HTRF (665 nm/620 nm) signal was read on the PHERAstar reader (BMG Labtech). The EC50 values were calculated by fitting the % inhibition with a nonlinear four-parameter logistical equation.

[3] = system: TAZ nuclear translocation in SW1990 cells; test: TAZ Nuclear Translocation Assay; format: cell-based; conditions: Homo sapiens, 4 hours
How it was run: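 SW1990 cells in RPMI1640/10% FBS treated with compounds for 4 h at 37 °C, then fixed and immunostained for TAZ with Hoechst nuclear counterstain and imaged by high-content imaging. Read-out is the nuclear/cytoplasmic-ring fluorescence ratio, normalized to DMSO (0%) and an inhibitor control (100%); EC50 from four-parameter fit.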

Human LATS2 catalytic domain, sequence (Q9NRM7 553-1088): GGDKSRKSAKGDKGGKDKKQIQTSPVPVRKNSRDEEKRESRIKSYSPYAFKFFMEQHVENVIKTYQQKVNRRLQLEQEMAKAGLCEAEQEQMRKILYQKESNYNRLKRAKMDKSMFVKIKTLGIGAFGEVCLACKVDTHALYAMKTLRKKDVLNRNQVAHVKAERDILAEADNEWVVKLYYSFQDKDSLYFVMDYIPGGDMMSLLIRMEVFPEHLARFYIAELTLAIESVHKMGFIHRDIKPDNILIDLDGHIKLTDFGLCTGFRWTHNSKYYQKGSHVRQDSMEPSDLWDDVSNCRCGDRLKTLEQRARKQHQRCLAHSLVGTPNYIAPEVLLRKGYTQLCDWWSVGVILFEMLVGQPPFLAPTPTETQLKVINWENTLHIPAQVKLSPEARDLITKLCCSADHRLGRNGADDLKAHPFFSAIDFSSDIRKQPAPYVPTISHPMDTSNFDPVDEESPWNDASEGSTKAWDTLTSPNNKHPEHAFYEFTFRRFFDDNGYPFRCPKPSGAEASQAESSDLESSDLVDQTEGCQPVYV
Human LATS2 catalytic domain, sequence (Q7L9L4 whole entry partner, the tested form may be a part): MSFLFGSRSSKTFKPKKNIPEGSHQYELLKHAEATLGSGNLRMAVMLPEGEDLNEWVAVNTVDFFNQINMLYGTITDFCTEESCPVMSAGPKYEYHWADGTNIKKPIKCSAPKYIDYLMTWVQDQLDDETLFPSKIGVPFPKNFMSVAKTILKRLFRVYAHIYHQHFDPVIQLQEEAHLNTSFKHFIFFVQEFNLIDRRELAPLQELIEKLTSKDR

Ki [1]	EC50 [2]	EC50 [3]	Compound
0.1 nM		170 nM	OCC1CC2(CCN(c3nc(-c4ccncc4)nc4cnccc34)CC2)CN1C1CCCC1 (centres unmarked) [Example 206, (2-cyclopentyl-8-(2-(pyridin-4-yl)pyrido[3,4-d]pyrimidin-4-yl)-2,8-diazaspiro[4.5]decan-3-yl)methanol]
0.11 nM		420 nM	OC1(CN2CCC3(CCN(c4nc(-c5ccncc5)nc5cnccc45)CC3)C2)COC1 [Example 211, 3-((8-(2-(Pyridin-4-yl)pyrido[3,4-d]pyrimidin-4-yl)-2,8-diazaspiro[4.5]decan-2-yl)methyl)oxetan-3-ol]
0.6 nM		> 10000 nM	FC(F)c1[nH]ncc1-c1nc(N2CCC3(CCNC3)CC2)c2ccncc2n1 [Example 213, 2-(5-(difluoromethyl)-1H-pyrazol-4-yl)-4-(2,8-diazaspiro[4.5]decan-8-yl)pyrido[3,4-d]pyrimidine]
10 nM		850 nM	CNc1cc2c(N3CCC4(CCN(C)C4)CC3)nc(-c3ccncc3)nc2cn1 [Example 214, N-methyl-4-(2-methyl-2,8-diazaspiro[4.5]decan-8-yl)-2-(pyridin-4-yl)pyrido[3,4-d]pyrimidin-6-amine]
1.2 nM		1500 nM	CN(C)S(=O)(=O)CCN1CCC2(CCN(c3nc(-c4ccncc4)nc4cnccc34)CC2)C1 [Example 215, N,N-dimethyl-2-(8-(2-(pyridin-4-yl)pyrido[3,4-d]pyrimidin-4-yl)-2,8-diazaspiro[4.5]decan-2-yl)ethanesulfonamide]
2.7 nM		> 10000 nM	FC1(F)CNCC12CCN(c1nc(-c3ccncc3)nc3cnccc13)CC2 [Example 223, 4-(4,4-difluoro-2,8-diazaspiro[4.5]decan-8-yl)-2-(pyridin-4-yl)pyrido[3,4-d]pyrimidine]
0.16 nM		8900 nM	CS(=O)(=O)NCC1CC2(CCN(c3nc(-c4ccncc4)nc4cnccc34)CC2)CN1 (centres unmarked) [Example 224, N-((8-(2-(pyridin-4-yl)pyrido[3,4-d]pyrimidin-4-yl)-2,8-diazaspiro[4.5]decan-3-yl)methyl)methanesulfonamide]
2.1 nM		1800 nM	Brc1cncc2nc(-c3ccncc3)nc(N3CCC4(CCNC4)CC3)c12 [Example 225, 5-Bromo-2-(pyridin-4-yl)-4-(2,8-diazaspiro[4.5]decan-8-yl)pyrido[3,4-d]pyrimidine]
0.016 nM		130 nM	Cc1n[nH]cc1-c1nc(N2CCC3(CCN(C)C3)CC2)c2cc(Cc3ccccc3)ncc2n1 [Example 226, 6-benzyl-2-(3-methyl-1H-pyrazol-4-yl)-4-(2-methyl-2,8-diazaspiro[4.5]decan-8-yl)pyrido[3,4-d]pyrimidine]
0.086 nM		2300 nM	Cc1n[nH]cc1-c1nc(N2CCC3(CCN(C)C3)CC2)c2cc(Cc3cccnc3)ncc2n1 [Example 227, 2-(3-methyl-1H-pyrazol-4-yl)-4-(2-methyl-2,8-diazaspiro[4.5]decan-8-yl)-6-(pyridin-3-ylmethyl)pyrido[3,4-d]pyrimidine]
0.061 nM		4300 nM	Cc1n[nH]cc1-c1nc(N2CCC3(CCNC3)CC2)c2ccnc(Cl)c2n1 [Example 232, 8-chloro-2-(3-methyl-1H-pyrazol-4-yl)-4-(2,8-diazaspiro[4.5]decan-8-yl)pyrido[3,4-d]pyrimidine]
0.028 nM		260 nM	COc1cncc2nc(-c3ccncc3)nc(N3CCC4(CCNC4)CC3)c12 [Example 233, 5-Methoxy-2-(pyridin-4-yl)-4-(2,8-diazaspiro[4.5]decan-8-yl)pyrido[3,4-d]pyrimidine]
0.49 nM		1200 nM	Cc1n[nH]cc1-c1nc(N2CCC3(CCN(C)C3)CC2)c2cc(Cc3ccncc3)ncc2n1 [Example 236, 2-(3-methyl-1H-pyrazol-4-yl)-4-(2-methyl-2,8-diazaspiro[4.5]decan-8-yl)-6-(pyridin-4-ylmethyl)pyrido[3,4-d]pyrimidine]
0.25 nM		2300 nM	Cc1n[nH]cc1-c1nc(N2CCC3(CCN(C)C3)CC2)c2cc(Cc3ccccn3)ncc2n1 [Example 238, 2-(3-methyl-1H-pyrazol-4-yl)-4-(2-methyl-2,8-diazaspiro[4.5]decan-8-yl)-6-(pyridin-2-ylmethyl)pyrido[3,4-d]pyrimidine]
4.9 nM		> 10000 nM	OCc1cncc2nc(-c3ccncc3)nc(N3CCC4(CCNC4)CC3)c12 [Example 239, (2-(Pyridin-4-yl)-4-(2,8-diazaspiro[4.5]decan-8-yl)pyrido[3,4-d]pyrimidin-5-yl)methanol]
2 nM		3200 nM	CC(C)c1cncc2nc(-c3ccncc3)nc(N3CCC4(CCNC4)CC3)c12 [Example 240, 5-Isopropyl-2-(pyridin-4-yl)-4-(2,8-diazaspiro[4.5]decan-8-yl)pyrido[3,4-d]pyrimidine]

Second part, the compound before the results:

Compound	Ki [1]	EC50 [2]	EC50 [3]
c1cc(-c2nc(N3CCC4(CC3)CCN([C@@H]3CCOC3)C4)c3ccncc3n2)ccn1 (single isomer, unassigned) [Compound 112]	1.07 nM	940 nM	700 nM
c1cc(-c2nc(N3CCC4(CC3)CCN([C@H]3CCOC3)C4)c3ccncc3n2)ccn1 (single isomer, unassigned) [Compound 113]	0.82 nM	1100 nM	660 nM
OC[C@@H]1CC2(CCN(c3nc(-c4ccncc4)nc4cnccc34)CC2)CN1 (single isomer, unassigned) [Compound 197]	0.059 nM	1400 nM	1300 nM
OC[C@H]1CC2(CCN(c3nc(-c4ccncc4)nc4cnccc34)CC2)CN1 (single isomer, unassigned) [Compound 198]	0.041 nM	2400 nM	1400 nM
FC(F)(F)CN1CCC2(CCN(c3nc(-c4ccncc4)nc4cnccc34)CC2)C1 [Compound 105, 2-(pyridin-4-yl)-4-(2-(2,2,2-trifluoroethyl)-2,8-diazaspiro[4.5]decan-8-yl)pyrido[3,4-d]pyrimidine]	3.08 nM	5800 nM	2300 nM
c1cc(-c2nc(N3CCC4(CC3)CCN(C3CCCC3)C4)c3ccncc3n2)ccn1 [Compound 106, 4-(2-cyclopentyl-2,8-diazaspiro[4.5]decan-8-yl)-2-(pyridin-4-yl)pyrido[3,4-d]pyrimidine formate]	0.053 nM	230 nM	300 nM
CC(C)(CO)N1CCC2(CCN(c3nc(-c4ccncc4)nc4cnccc34)CC2)C1 [Compound 107, 2-methyl-2-(8-(2-(pyridin-4-yl)pyrido[3,4-d]pyrimidin-4-yl)-2,8-diazaspiro[4.5]decan-2-yl)propan-1-ol]	0.62 nM	290 nM	420 nM
OC1CC(N2CCC3(CCN(c4nc(-c5ccncc5)nc5cnccc45)CC3)C2)C1 (centres unmarked) [Compound 108, 3-(8-(2-(pyridin-4-yl)pyrido[3,4-d]pyrimidin-4-yl)-2,8-diazaspiro[4.5]decan-2-yl)cyclobutanol]	0.31 nM	580 nM	380 nM
CCc1cncc2nc(-c3ccncc3)nc(N3CCC4(CCNC4)CC3)c12 [Example 204, 5-Ethyl-2-(pyridin-4-yl)-4-(2,8-diazaspiro[4.5]decan-8-yl)pyrido[3,4-d]pyrimidine]	1.1 nM		1000 nM
OC1(CN2CCC3(CCN(c4nc(-c5ccncc5)nc5cnccc45)CC3)C2)CCC1 [Example 205, 1-((8-(2-(Pyridin-4-yl)pyrido[3,4-d]pyrimidin-4-yl)-2,8-diazaspiro[4.5]decan-2-yl)methyl)cyclobutan-1-ol]	0.23 nM		170 nM
Cc1n[nH]cc1-c1nc(N2CCC3(CCN(CCF)C3)CC2)c2ccncc2n1 [Example 219, 4-(2-(2-fluoroethyl)-2,8-diazaspiro[4.5]decan-8-yl)-2-(3-methyl-1H-pyrazol-4-yl)pyrido[3,4-d]pyrimidine]	0.067 nM		460 nM
Cc1[nH]ncc1-c1nc(N2CCC3(CCN(CC(F)F)C3)CC2)c2ccncc2n1 [Example 220, 4-(2-(2,2-difluoroethyl)-2,8-diazaspiro[4.5]decan-8-yl)-2-(3-methyl-1H-pyrazol-4-yl)pyrido[3,4-d]pyrimidine]	0.074 nM		660 nM
F[C@@H]1CNCC12CCN(c1nc(-c3ccncc3)nc3cnccc13)CC2 [Example 234, (S)-4-(4-fluoro-2,8-diazaspiro[4.5]decan-8-yl)-2-(pyridin-4-yl)pyrido[3,4-d]pyrimidine]	4.5 nM		4200 nM
F[C@H]1CNCC12CCN(c1nc(-c3ccncc3)nc3cnccc13)CC2 [Example 235, (R)-4-(4-fluoro-2,8-diazaspiro[4.5]decan-8-yl)-2-(pyridin-4-yl)pyrido[3,4-d]pyrimidine]	1.3 nM		1800 nM
